Several values for one entry are separate records, joined by “and”; a condition that tells them apart may be missing. Equal values may be shown once.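 Briefly, cells in 96-well plates were exposed to five compound concentrations for 48 h, and endpoints were estimated by linear interpolation. Here, GI50 denotes the concentration required for 50% inhibition of growth. The concentration for full growth arrest is given as TGI.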

Among the data in PubChem BioAssay (NCI) are TGI and GI50 values, retold here.

Among the test systems are SK-MEL-28 melanoma; HCT-116 colon; MCF7 breast; A498 renal; A549 NSCLC; LOX IMVI melanoma; MALME-3M melanoma; NCI-H522 lung; SK-MEL-2 melanoma; MOLT-4 leukemia.
Common to all, as to assay: NCI tumour cell line growth inhibition, 48 h

Take `Cc1c2cccc-2c2cc(O)c3ccccc3c2n1-c1ccc(N(C)C)cc1`: the TGI in the assay on SK-MEL-28 melanoma stood at 35 µM; with HCT-116 colon it was 35.4 µM; in the assay on MCF7 breast, 17.4 µM; with A498 renal, 30.7 µM; in the assay on A549 NSCLC, 31.6 µM; in the assay with LOX IMVI melanoma it was 27.8 µM. Also, the TGI in the assay on MALME-3M melanoma is 29 µM; in the assay on NCI-H522 lung, 33 µM; with SK-MEL-2 melanoma it was 31.4 µM.

Take `COC(=O)c1ccccc1C1CN=NC12Cc1c(ccc(C)c1C)C2=O` (configuration not stated): the TGI with SK-MEL-28 melanoma, in the assay with HCT-116 colon, in the assay with MCF7 breast, in the assay on A498 renal, with A549 NSCLC and with LOX IMVI melanoma was greater than 100 µM each time. Moreover, the TGI in the assay on MALME-3M melanoma, in the assay on MOLT-4 leukemia, in the assay with NCI-H522 lung and in the assay on SK-MEL-2 melanoma was greater than 100 µM in each case.

With `CC(C)Oc1cccc(N2C(n3ccnc3)=Nc3ccncc3S2(=O)=O)c1`, the TGI in the assay on SK-MEL-28 melanoma was determined as 33 µM; in the assay with HCT-116 colon, 26.8 µM; in the assay on MCF7 breast, 24.1 µM; in the assay with A498 renal, 31.8 µM; with A549 NSCLC, 37.2 µM; with LOX IMVI melanoma, 31.9 µM. Besides, the TGI in the assay with MALME-3M melanoma was found to be 26.6 µM; in the assay on MOLT-4 leukemia, 14.8 µM; with NCI-H522 lung, 22 µM; with SK-MEL-2 melanoma it was 26.7 µM.

With `CN(CCN1CCCC1)C1CCc2cc(Cl)c(Cl)cc2C1` (configuration not stated), the TGI worked out at 67.9 µM in the assay on SK-MEL-28 melanoma; 25.5 µM in the assay with HCT-116 colon; 29 µM in the assay with MCF7 breast; 27.1 µM with A498 renal; 32.4 µM in the assay with A549 NSCLC; 29.7 µM in the assay with LOX IMVI melanoma. The TGI was 33.6 µM in the assay on MALME-3M melanoma, greater than 100 µM with MOLT-4 leukemia, 33 µM in the assay with NCI-H522 lung and 35.2 µM in the assay on SK-MEL-2 melanoma.

Take `CCCCCCCCCCCCCCCCCCOc1ccccc1CC(=O)NCC[N+]1(C)CCOCC1`: the GI50 in the assay on SK-MEL-28 melanoma was 7.69 µM; in the assay on HCT-116 colon, 4.71 µM; in the assay with MCF7 breast, 2.71 µM; in the assay with A498 renal, 13.4 µM; in the assay with A549 NSCLC, 4.39 µM; in the assay on LOX IMVI melanoma, 3.51 µM. The GI50 in the assay with MALME-3M melanoma is 4.48 µM; with NCI-H522 lung, 1.95 µM; in the assay on SK-MEL-2 melanoma, 13.9 µM. Further, the TGI in the assay with SK-MEL-28 melanoma is 49.8 µM; with HCT-116 colon, greater than 100 µM; in the assay with MCF7 breast, 9.34 µM; with A498 renal, 44 µM; in the assay on A549 NSCLC, 26.3 µM; with LOX IMVI melanoma, 42.4 µM. The TGI was greater than 100 µM in the assay on MALME-3M melanoma, 5.05 µM in the assay on NCI-H522 lung and 34.6 µM in the assay with SK-MEL-2 melanoma.

With `CC(=O)Nc1nc(Cl)cc(NCC2(CO)CCC2)n1`, the TGI in the assay with SK-MEL-28 melanoma, in the assay with HCT-116 colon, in the assay with MCF7 breast, in the assay with A498 renal, with A549 NSCLC and in the assay on LOX IMVI melanoma was greater than 100 µM in each case. Besides, the TGI in the assay with MALME-3M melanoma, in the assay with MOLT-4 leukemia, in the assay with NCI-H522 lung and in the assay on SK-MEL-2 melanoma was greater than 100 µM each time.

Regarding `Cc1c(C)n(-c2ccccc2)c2nc(S(C)=O)nc(S(C)=O)c12` (configuration not stated), the TGI was found to be 14.9 µM in the assay on SK-MEL-28 melanoma; 4.86 µM in the assay on HCT-116 colon; 7.1 µM in the assay with MCF7 breast; 26.9 µM in the assay on A498 renal; 31.7 µM in the assay on A549 NSCLC; 4.15 µM with LOX IMVI melanoma. For the same compound, the TGI in the assay on MALME-3M melanoma came out at 4.09 µM; in the assay with MOLT-4 leukemia, 5.57 µM; in the assay on NCI-H522 lung it was 4.59 µM; in the assay on SK-MEL-2 melanoma, 10.1 µM.

On to `O=CC(I)=C(c1ccccc1)c1ccccc1`, for which the TGI in the assay with SK-MEL-28 melanoma amounted to 31.8 µM; with HCT-116 colon, 27.2 µM; in the assay on MCF7 breast it was 31.9 µM; with A498 renal, 41.8 µM; in the assay with A549 NSCLC it was 36.1 µM; in the assay on LOX IMVI melanoma it was 28.6 µM. For the same compound, the TGI stood at 30.8 µM with MALME-3M melanoma, 72.3 µM in the assay on MOLT-4 leukemia, 32.3 µM in the assay with NCI-H522 lung and 33.4 µM in the assay on SK-MEL-2 melanoma.

Turning to `O=C(/C=C/c1ccc(O)c(O)c1)OCCc1ccc2ccccc2c1`, the TGI stood at 21.8 µM in the assay with SK-MEL-28 melanoma; 17.9 µM with HCT-116 colon; 8.91 µM in the assay on MCF7 breast; 28.4 µM in the assay with A498 renal; 24.9 µM in the assay with A549 NSCLC; 20.8 µM in the assay with LOX IMVI melanoma. The TGI in the assay on MALME-3M melanoma turned out to be 23.1 µM; in the assay with MOLT-4 leukemia it was 11.3 µM; in the assay with NCI-H522 lung it was 8.35 µM; with SK-MEL-2 melanoma, 4.35 µM.

Regarding `O=C1C=CC2(O[C@H](c3ccccc3)[C@@H](c3ccccc3)O2)[C@H](Sc2ccccc2O)C1`, the TGI in the assay on HCT-116 colon is 0.309 µM; in the assay with MCF7 breast it was 2.44 µM; with A498 renal it was 5.15 µM; in the assay on A549 NSCLC, 16.4 µM; with LOX IMVI melanoma, 0.338 µM; with MALME-3M melanoma, 0.907 µM. Also, the TGI in the assay with NCI-H522 lung amounted to 0.182 µM; with SK-MEL-2 melanoma it was 4.63 µM.

Consider `CN(C)CCn1c(=O)c2ccc(NCCCN(C)CCCNc3ccc4c(=O)n(CCN(C)C)c(=O)n5c6ccc(O)cc6c(=O)c3c45)c3c(=O)c4cc(O)ccc4n(c1=O)c23`, for which the TGI with SK-MEL-28 melanoma was found to be 1.19 µM; in the assay on HCT-116 colon it was 0.49 µM; with MCF7 breast, 0.71 µM; with A498 renal, 0.367 µM; with A549 NSCLC it was 0.786 µM; in the assay with LOX IMVI melanoma, 0.0619 µM. Moreover, the TGI is 0.598 µM in the assay with MALME-3M melanoma, less than 0.0289 µM with MOLT-4 leukemia, 0.0802 µM in the assay on NCI-H522 lung and 0.275 µM with SK-MEL-2 melanoma.

For `Cc1c2ccnc(C(N)=O)c2c(C)c2c1[nH]c1ccccc12`, the GI50 with SK-MEL-28 melanoma was 5.31 µM; in the assay on A498 renal, 3.09 µM; in the assay on A549 NSCLC, 3.28 µM; in the assay on MALME-3M melanoma, 5.02 µM; in the assay with SK-MEL-2 melanoma it was 9.86 µM. The TGI in the assay on SK-MEL-28 melanoma is 19.4 µM and 20.1 µM; in the assay on HCT-116 colon it was 17.4 µM; in the assay with MCF7 breast, 32 µM; with A498 renal it was 26.7 µM and 12.4 µM; with A549 NSCLC, 37.1 µM and 15.8 µM; in the assay on LOX IMVI melanoma, 21.2 µM. Further, the TGI in the assay on MALME-3M melanoma was 19.3 µM; with MOLT-4 leukemia, 25.1 µM and 12.9 µM; in the assay with NCI-H522 lung, 31.6 µM; in the assay on SK-MEL-2 melanoma, 37.5 µM and 44.1 µM.

Consider `c1ccc(C2=NC3OC2c2ccccc23)cc1` (configuration not stated), for which the TGI in the assay with SK-MEL-28 melanoma, in the assay with HCT-116 colon, in the assay with MCF7 breast, in the assay on A498 renal, in the assay with A549 NSCLC and in the assay on LOX IMVI melanoma was greater than 10 µM throughout. Moreover, the TGI with MALME-3M melanoma, in the assay with MOLT-4 leukemia, with NCI-H522 lung and in the assay on SK-MEL-2 melanoma was greater than 10 µM in each case.

Turning to `CCCCI(O)OS(=O)(=O)c1ccc(C)cc1`, the TGI with SK-MEL-28 melanoma was greater than 100 µM; with HCT-116 colon, greater than 100 µM; with MCF7 breast it was greater than 100 µM; in the assay on A498 renal it was greater than 100 µM; in the assay on A549 NSCLC, greater than 100 µM; in the assay on LOX IMVI melanoma, 30.8 µM. Also, the TGI with MOLT-4 leukemia was greater than 100 µM; with NCI-H522 lung, 48.9 µM; in the assay with SK-MEL-2 melanoma, greater than 100 µM.

With `N#Cc1c(-c2ccc([N+](=O)[O-])cc2)cc(-c2ccc(Nc3ccnc4cc(Cl)ccc34)cc2)[nH]c1=O`, the TGI with SK-MEL-28 melanoma, in the assay on HCT-116 colon, in the assay on MCF7 breast, in the assay with A498 renal, in the assay on A549 NSCLC and in the assay with LOX IMVI melanoma was greater than 100 µM each time. For the same compound, the TGI in the assay on MALME-3M melanoma, with MOLT-4 leukemia, in the assay on NCI-H522 lung and with SK-MEL-2 melanoma was greater than 100 µM throughout.

As to `COC(=O)[C@]1(C)CCC[C@@]2(C)C1CC[C@]13C=C(C(C)C)[C@H](CC21)CC3(Cl)C#N` (some centres not stated), the TGI in the assay with SK-MEL-28 melanoma is greater than 100 µM; in the assay with HCT-116 colon it was greater than 100 µM; in the assay with MCF7 breast it was greater than 100 µM; in the assay with A498 renal, greater than 100 µM; in the assay with A549 NSCLC, greater than 100 µM; in the assay with MALME-3M melanoma, 89.7 µM. Moreover, the TGI in the assay with MOLT-4 leukemia and in the assay with NCI-H522 lung was greater than 100 µM each time.

As for `O=C(CCc1cc(O)cc(O)c1)NCCc1cc(OCc2ccccc2)cc(OCc2ccccc2)c1`, the TGI in the assay with SK-MEL-28 melanoma worked out at 55 µM; with HCT-116 colon, 32.2 µM; in the assay on MCF7 breast it was 23.6 µM; with A498 renal it was 42.8 µM; with A549 NSCLC, 23.6 µM; in the assay with LOX IMVI melanoma, 32 µM. Further, the TGI in the assay on MOLT-4 leukemia was determined as 22.7 µM; in the assay with NCI-H522 lung, 28.2 µM; with SK-MEL-2 melanoma, 28.2 µM.

Take `COC1OC(C)C(NC(=O)OCC(Cl)(Cl)Cl)C2OC(C)(C)OC12` (configuration not stated): the TGI with SK-MEL-28 melanoma, in the assay on HCT-116 colon, with MCF7 breast, with A498 renal, in the assay on A549 NSCLC and in the assay with MALME-3M melanoma was greater than 100 µM in each case. Besides, the TGI with MOLT-4 leukemia and in the assay on NCI-H522 lung was greater than 100 µM in each case.

With `COc1ccc2c(c1)c1c(n2CCN2CCCCC2)-c2cccc(OC)c2CC1`, the TGI in the assay on SK-MEL-28 melanoma is 35 µM; in the assay on HCT-116 colon, greater than 100 µM; in the assay with MCF7 breast, 35.4 µM; with A498 renal, 49.2 µM; in the assay on A549 NSCLC, greater than 100 µM; in the assay with LOX IMVI melanoma, 38.7 µM. The TGI in the assay on MOLT-4 leukemia amounted to 48 µM; with NCI-H522 lung it was 18.8 µM; in the assay with SK-MEL-2 melanoma, 32.3 µM.

`Cc1ccc(-c2cc(-c3ccco3)c(C#N)c(=S)[nH]2)cc1`: the TGI with SK-MEL-28 melanoma, in the assay on HCT-116 colon, with MCF7 breast, with A498 renal, in the assay with A549 NSCLC and in the assay on LOX IMVI melanoma was greater than 100 µM each time. Further, the TGI in the assay on MALME-3M melanoma, with MOLT-4 leukemia and in the assay on NCI-H522 lung was greater than 100 µM each time.
